According to patent publication US20170327786A1 (Biogen MA Inc., priority 2014, published 2017):
Like-named read-outs stand apart in the source and are kept apart here.

How the values were obtained:
[1] = test system: Cell Line A
Procedure: Cell Line A expressed the polypeptide Neublastin. […] Feed medium was added daily from Day 2 to Day 12 to the cell culture. […] Initial cell density was one million cells (1e6).

[2] = test system: Cell Line B
Procedure: Cell Line B expressed the polypeptide Lingo. […] Feed medium was added daily from Day 1 to Day 15 to the cell culture. […] Initial cell density was one million cells (1e6).

[3] = test system: Cell Line B; remark: listed apart in the source
[4] = test system: Cell Line B; test: Alternative antioxidants as replacement for hypotaurine, Cell Line B waste accumulation and culture performance; format: cell-based
Procedure: Taurine is the by-product of hypotaurine metabolism. Therefore, cell culture performance when 8 mM taurine was added to the feed medium was compared to cell culture performance when 8 mM of hypotaurine was added to the feed medium. Initial cell density was one million cells (1e6).
Cysteamine is a precursor of hypotaurine. […] Initial cell density was one million cells (1e6). The effects of glutathione, another type of antioxidant, were also explored.

[5] = test system: CHO cells; test: Fed-batch culture of CHO cells with GABA-supplemented feed medium; format: cell-based, Chinese hamster
Procedure: The impact of gamma-aminobutyric acid (GABA) levels in the culture on cell density (growth), viability, and lactate concentration was evaluated in CHO cells in a fed-batch process (FIG. 9).
Cryopreserved CHO cells were thawed and maintained in 500 mL, 1000 mL or 3000 mL shake flasks with 100 mL, 200 mL or 1000 mL working volumes using cell culture medium CM3 and were passaged every 2 to 4 days. For maintenance cultures, the incubator was controlled at 36° C. and 5% CO2. A 5 liter (L) glass Applikon vessels using Finesse TruBio DV controllers (Finesse Solutions, San Jose, Calif.) were used for the fed-batch process. Bioreactors were seeded with an initial working volume of 2.5 L at a constant seed. For the control process, feed medium, CF2b, was given on day 3, day 5 and daily thereafter (starting on day 6) until the day before harvest and culture termination. The control process lasted 15 days with harvest and culture termination on day 15. CF2b is designated as a complete feed, comprised of all necessary nutritional elements including glucose, amino acids, vitamins, and metals. For GABA culture, feed medium was supplemented with 8 mM of GABA. The GABA culture lasted 17 days with harvest and culture termination on day 17. The complete feed amount was calculated as a predetermined fixed percentage based on culture volume. Glucose is maintained by the feeding strategy above 2 g/L in general by the bolus feeds and is not limiting. Culture temperature was set at 35° C. and medium pH was controlled at 7.1±0.2 by the addition of either 1 M sodium carbonate or CO2 gas. Dissolved oxygen (DO) was maintained at 30% with air sparge, enriched with oxygen as necessary, through a drilled hole sparger. Agitation was maintained between 200 and 400 rpm throughout the culture to limit total gas flow. An air overlay was maintained between 0.005 and 0.02 gas volume flow per unit of liquid volume per minute (vvm).

[6] = test system: Cell Line B; test: Fed-batch culture of Cell Line B with hypotaurine feed medium; format: cell-based
Procedure: The control feed medium contained 0 mM hypotaurine. The hypotaurine feed medium contained 8 mM hypotaurine. […] The concentration of hypotaurine in the bioreactor on Day 16 was approximately 2.7 mM. […] Initial cell density was one million cells (1e6). The effects of hypotaurine were evident starting on Day 10.

[7] = 9 mM choline chloride feed medium vs control feed with 3 mM choline chloride
[8] = 18 mM choline chloride feed medium vs control feed with 3 mM choline chloride
[9] = feed medium supplemented with 8 mM GABA vs control
[10] = 8 mM hypotaurine feed medium vs control feed with 0 mM hypotaurine

C[N+](C)(C)CCO.[Cl-] [Choline, choline chloride]
day from which the effects were evident ([1]; 9 mM choline chloride feed medium): 3 days | ammonium accumulation [1, 7]: lower | viability [1, 7]: higher | titer ([1]; 9 mM choline chloride feed medium vs control feed with 3 mM choline chloride, Neublastin): higher | growth (cell density) ([1]; 9 mM choline chloride feed medium vs control feed with 3 mM choline chloride, fed daily Day 2 to Day 12): higher | Day 3 (Effective) Choline Conc. ([1]; concentration in culture on Day 3, when effects became evident): 0.90 mM | day from which the effects were evident ([2]; 18 mM choline chloride feed medium): 9 days | ammonium accumulation [2, 8]: lower | viability [2, 8]: higher | titer ([2]; 18 mM choline chloride feed medium vs control feed with 3 mM choline chloride, Lingo): slightly higher | growth (cell density) ([2]; 18 mM choline chloride feed medium vs control feed with 3 mM choline chloride, fed daily Day 1 to Day 15): higher | Day 9 (Effective) Choline Conc. ([2]; choline used alone, concentration in culture on Day 9, when effects became evident): 4.65 mM | Effective Choline Conc. ([3]; Day 6, high seed): 4.0 mM | culture viability crash ([3]; high seed 8×10^6 vc/mL, after day 12): occurred after day 12

NCCS [Cysteamine, cysteamine]
cell culture performance (growth, viability, ammonium concentration, titer) as replacement for hypotaurine ([4]; 3 mM cysteamine/18 mM choline chloride in feed vs 8 mM hypotaurine and 18 mM choline chloride): not able to serve as replacements for hypotaurine

NCCCC(=O)O [GABA, Gamma-Aminobutyric Acid]
growth (viable cell density) ([5]; feed medium CF2b supplemented with 8 mM GABA vs unsupplemented control feed): higher | delay of the onset of a high lactate phenotype compared to control ([5]; feed medium supplemented with 8 mM GABA): about 2 days | lactate accumulation [5, 9]: lower | viability [5, 9]: higher | culture duration (harvest and culture termination) ([5]; feed medium supplemented with 8 mM GABA, control process lasted 15 days): 17 days

NCCS(=O)O [Hypotaurine, hypotaurine]
day from which the effects were evident ([6]; 8 mM hypotaurine feed medium): 10 days | ammonium accumulation [6, 10]: lower | titer [6, 10]: higher | viability [6, 10]: higher | growth (cell density) ([6]; 8 mM hypotaurine feed medium vs control feed with 0 mM hypotaurine, fed daily Day 1 to Day 15): higher | Day 10 (Effective) Hypotaurine Conc. ([6]; hypotaurine used alone, concentration in culture on Day 10, when effects became evident): 2.5 mM

N[C@@H](CCC(=O)N[C@@H](CS)C(=O)NCC(=O)O)C(=O)O [glutathione]
cell culture performance (growth, viability, ammonium concentration, titer) as replacement for hypotaurine ([4]; 1.3 mM glutathione/18 mM choline chloride in feed vs 8 mM hypotaurine and 18 mM choline chloride): not able to serve as replacements for hypotaurine

NCCS(=O)(=O)O [taurine]
cell culture performance (growth, viability, ammonium concentration, titer) as replacement for hypotaurine ([4]; 8 mM taurine in feed medium vs 8 mM hypotaurine in feed medium): not able to serve as a replacement for hypotaurine
